Assay results: the NIST ThermoML archive (doi:10.1021/je200800f)
Numbers after ± are expanded uncertainties.

Legend:
[1] = DTA
[2] = Molar enthalpy of transition or fusion; settings: Crystal; DSC

| SMILES | Normal melting temperature ([1]; Crystal) [°C] | Molar enthalpy of transition or fusion [2] [kcal/mol] | Normal melting temperature ([1]; Crystal 1) [°C] |
| --- | --- | --- | --- |
| O=C(O)CCCC(=O)O [1,5-pentanedioic acid] | 96.0 ± 2 | 5.14 ± 0.215 |  |
| O=C(O)CCCCC(=O)O [1,6-hexanedioic acid] | 153.2 ± 2 | 8.41 ± 0.382 |  |
| O=C(O)CCCCCC(=O)O [1,7-heptanedioic acid] | 104.2 ± 2 | 6.88 ± 0.287 |  |
| CC(C)(CC(=O)O)C(=O)O [2,2-dimethyl-1,4-butanedioic acid] |  | 9.11 ± 0.287 | 138 ± 2 |
| CC(C(=O)O)C(C)C(=O)O (configuration not stated) [2,3-dimethyl-1,4-butanedioic acid] | 119.4 ± 2 | 4.04 ± 0.167 |  |
| CC(CC(=O)O)CC(=O)O [3-methylpentanedioic acid] |  | 7.39 ± 0.287 | 85.5 ± 2 |
